Results: publication PMC6219668 (Oncotarget, 2018)

Tested on: panel of nearly 500 cancer cell lines
Experiment: Cancer Cell Line Encyclopedia profiling, 3-day CellTiter-Glo
Assay type: cell-based
Parameters: Amax: unit not given here

## CC(=O)c1c(C)c2cnc(Nc3ccc(N4CCNCC4)cn3)nc2n(C2CCCC2)c1=O [Palbociclib, reference compound]
769p (kidney)
  Amax: -52.63
8305c (thyroid)
  Amax: -51.0145
8505c (thyroid)
  Amax: -0.08134
COV318
  EC50: > 8 µM
COV504
  EC50: > 8 µM
GLC82
  EC50: 0.00254 µM
HCC15
  EC50: > 8 µM
HEC-251
  EC50: > 8 µM
HEY A8
  EC50: 0.947 µM
Homo sapiens, 22Rv1
  EC50: 1.22 µM
Homo sapiens, 639-V
  EC50: > 8 µM
Homo sapiens, 769-P
  EC50: > 8 µM
Homo sapiens, 8305C
  EC50: 0.576 µM
Homo sapiens, 8505C
  EC50: > 8 µM
Homo sapiens, A 172
  EC50: > 8 µM
Homo sapiens, A204
  EC50: 0.407 µM
Homo sapiens, A253
  EC50: > 8 µM
Homo sapiens, A549
  EC50: 1.14 µM
Homo sapiens, A673
  EC50: > 8 µM
Homo sapiens, A2058
  EC50: > 8 µM
Homo sapiens, A2780
  EC50: 1.9 µM
Homo sapiens, A-375
  EC50: 2.72 µM
Homo sapiens, AMO1
  EC50: > 8 µM
Homo sapiens, AN3-CA
  EC50: 5.91 µM
Homo sapiens, ASPC1
  EC50: > 8 µM
Homo sapiens, AU565
  EC50: 0.993 µM
Homo sapiens, AZ-521
  EC50: > 8 µM
Homo sapiens, BFTC-909
  EC50: > 8 µM
Homo sapiens, BGC-823
  EC50: > 8 µM
Homo sapiens, BL-41
  EC50: > 8 µM
Homo sapiens, BT-20
  EC50: > 8 µM
Homo sapiens, BT-474
  EC50: 2.09 µM
Homo sapiens, BT-549
  EC50: > 8 µM
Homo sapiens, C2BBe1
  EC50: 1.73 µM
Homo sapiens, CAKI-2
  EC50: > 8 µM
Homo sapiens, CAL-27
  EC50: > 8 µM
Homo sapiens, CAL-85-1
  EC50: > 8 µM
Homo sapiens, CAMA-1
  EC50: > 8 µM
Homo sapiens, CHL-1
  EC50: > 8 µM
Homo sapiens, COLO 201
  EC50: 0.989 µM
Homo sapiens, COLO 205
  EC50: 1.71 µM
Homo sapiens, COLO 320
  EC50: > 8 µM
Homo sapiens, COLO-679
  EC50: > 8 µM
Homo sapiens, COR-L23
  EC50: > 8 µM
Homo sapiens, Calu-1
  EC50: > 8 µM
Homo sapiens, Calu-3
  EC50: > 8 µM
Homo sapiens, Capan-2
  EC50: > 8 µM
Homo sapiens, DBTRG-05MG
  EC50: > 8 µM
Homo sapiens, DMS-114
  EC50: 0.957 µM
Homo sapiens, DOV13
  EC50: > 8 µM
Homo sapiens, DU-145
  EC50: > 8 µM
Homo sapiens, Daoy
  EC50: > 8 µM
Homo sapiens, Detroit 562
  EC50: 1.94 µM
Homo sapiens, EBC-1
  EC50: 0.242 µM
Homo sapiens, EFE-184
  EC50: > 8 µM
Homo sapiens, EFM-19
  EC50: 0.565 µM
Homo sapiens, EFO-21
  EC50: > 8 µM
Homo sapiens, EFO-27
  EC50: > 8 µM
Homo sapiens, FaDu
  EC50: 2.3 µM
Homo sapiens, G-361
  EC50: > 8 µM
Homo sapiens, G-401
  EC50: 0.644 µM
Homo sapiens, GCIY
  EC50: > 8 µM
Homo sapiens, GMS-10
  EC50: 2.8 µM
Homo sapiens, HCC70
  EC50: > 8 µM
Homo sapiens, HCC78
  EC50: > 8 µM
Homo sapiens, HCC1187
  EC50: > 8 µM
Homo sapiens, HCC1569
  EC50: > 8 µM
Homo sapiens, HCC1806
  EC50: > 8 µM
Homo sapiens, HCC1954
  EC50: 0.597 µM
Homo sapiens, HCC2935
  EC50: > 8 µM
Homo sapiens, HCC4006
  EC50: 0.73 µM
Homo sapiens, HCT-15
  EC50: > 8 µM
Homo sapiens, HCT-116
  EC50: > 8 µM
Homo sapiens, HEC-1-A
  EC50: 0.764 µM
Homo sapiens, HEC-1B
  EC50: 2.77 µM
Homo sapiens, HEL 92.1.7
  EC50: > 8 µM
Homo sapiens, HGC-27
  EC50: 0.539 µM
Homo sapiens, HMCB
  EC50: > 8 µM
Homo sapiens, HPAC
  EC50: 0.69 µM
Homo sapiens, HSC-2
  EC50: > 8 µM
Homo sapiens, HT1197
  EC50: > 8 µM
Homo sapiens, HT-29
  EC50: 0.557 µM
Homo sapiens, HT-144
  EC50: > 8 µM
Homo sapiens, HT-1080
  EC50: > 8 µM
Homo sapiens, HT-1376
  EC50: > 8 µM
Homo sapiens, HepG2
  EC50: 0.819 µM
Homo sapiens, Hs 294T
  EC50: > 8 µM
Homo sapiens, Hs 683
  EC50: 3.62 µM
Homo sapiens, Hs 695T
  EC50: > 8 µM
Homo sapiens, Hs746T
  EC50: 0.231 µM
Homo sapiens, Hs-578T
  EC50: > 8 µM
Homo sapiens, HuCCT-1
  EC50: > 8 µM
Homo sapiens, HuH-1
  EC50: 1.38 µM
Homo sapiens, HuP-T3
  EC50: 1.91 µM
Homo sapiens, HuP-T4
  EC50: > 8 µM
Homo sapiens, HuT78
  EC50: > 8 µM
Homo sapiens, IGR-37
  EC50: > 8 µM
Homo sapiens, IGROV-1
  EC50: > 8 µM
Homo sapiens, IMR-32
  EC50: 0.69 µM
Homo sapiens, IPC-298
  EC50: > 8 µM
Homo sapiens, KALS-1
  EC50: > 8 µM
Homo sapiens, KARPAS-299
  EC50: > 8 µM
Homo sapiens, KARPAS-422
  EC50: > 8 µM
Homo sapiens, KMS-12-BM
  EC50: > 8 µM
Homo sapiens, KNS-42
  EC50: > 8 µM
Homo sapiens, KU812
  EC50: > 8 µM
Homo sapiens, KYSE-30
  EC50: > 8 µM
Homo sapiens, KYSE-410
  EC50: > 8 µM
Homo sapiens, KYSE-520
  EC50: > 8 µM
Homo sapiens, L-363
  EC50: 0.804 µM
Homo sapiens, LCLC-103H
  EC50: > 8 µM
Homo sapiens, LN-18
  EC50: > 8 µM
Homo sapiens, LN-229
  EC50: 1.48 µM
Homo sapiens, LOX IMVI
  EC50: > 8 µM
Homo sapiens, LS-123
  EC50: > 8 µM
Homo sapiens, LS-513
  EC50: > 8 µM
Homo sapiens, Lu-99
  EC50: 1 µM
Homo sapiens, M059J
  EC50: > 8 µM
Homo sapiens, MC116
  EC50: > 8 µM
Homo sapiens, MCF7
  EC50: > 8 µM
Homo sapiens, MDA-MB-157
  EC50: > 8 µM
Homo sapiens, MDA-MB-175-VII
  EC50: > 8 µM
Homo sapiens, MDA-MB-415
  EC50: 6.74 µM
Homo sapiens, MDA-MB-436
  EC50: > 8 µM
Homo sapiens, MDA-MB-453
  EC50: 3.41 µM
Homo sapiens, MDA-MB-468
  EC50: > 8 µM
Homo sapiens, MEG-01
  EC50: > 8 µM
Homo sapiens, MES-SA
  EC50: 0.795 µM
Homo sapiens, MFE-280
  EC50: > 8 µM
Homo sapiens, MG-63
  EC50: 0.532 µM
Homo sapiens, MIA PaCa-2
  EC50: > 8 µM
Homo sapiens, MINO
  EC50: 0.489 µM
Homo sapiens, MKN-7
  EC50: > 8 µM
Homo sapiens, MKN-45
  EC50: > 8 µM
Homo sapiens, MKN-74
  EC50: > 8 µM
Homo sapiens, MSTO-211H
  EC50: > 8 µM
Homo sapiens, Malme-3M
  EC50: 0.714 µM
Homo sapiens, NCI-H23
  EC50: > 8 µM
Homo sapiens, NCI-H28
  EC50: 1.98 µM
Homo sapiens, NCI-H211
  EC50: 0.877 µM
Homo sapiens, NCI-H226
  EC50: > 8 µM
Homo sapiens, NCI-H358
  EC50: 1.49 µM
Homo sapiens, NCI-H441
  EC50: 1.35 µM
Homo sapiens, NCI-H520
  EC50: 0.706 µM
Homo sapiens, NCI-H522
  EC50: > 8 µM
Homo sapiens, NCI-H647
  EC50: > 8 µM
Homo sapiens, NCI-H650
  EC50: > 8 µM
Homo sapiens, NCI-H661
  EC50: > 8 µM
Homo sapiens, NCI-H727
  EC50: > 8 µM
Homo sapiens, NCI-H747
  EC50: 3.94 µM
Homo sapiens, NCI-H810
  EC50: > 8 µM
Homo sapiens, NCI-H1048
  EC50: > 8 µM
Homo sapiens, NCI-H1092
  EC50: > 8 µM
Homo sapiens, NCI-H1355
  EC50: 1.06 µM
Homo sapiens, NCI-H1373
  EC50: > 8 µM
Homo sapiens, NCI-H1563
  EC50: > 8 µM
Homo sapiens, NCI-H1573
  EC50: 1.03 µM
Homo sapiens, NCI-H1581
  EC50: > 8 µM
Homo sapiens, NCI-H1648
  EC50: > 8 µM
Homo sapiens, NCI-H1650
  EC50: 2.37 µM
Homo sapiens, NCI-H1651
  EC50: 2.52 µM
Homo sapiens, NCI-H1666
  EC50: > 8 µM
Homo sapiens, NCI-H1693
  EC50: > 8 µM
Homo sapiens, NCI-H1694
  EC50: > 8 µM
Homo sapiens, NCI-H1792
  EC50: 1.5 µM
Homo sapiens, NCI-H1793
  EC50: 0.881 µM
Homo sapiens, NCI-H1944
  EC50: 2.85 µM
Homo sapiens, NCI-H1975
  EC50: > 8 µM
Homo sapiens, NCI-H2009
  EC50: > 8 µM
Homo sapiens, NCI-H2030
  EC50: > 8 µM
Homo sapiens, NCI-H2052
  EC50: 0.528 µM
Homo sapiens, NCI-H2087
  EC50: 0.238 µM
Homo sapiens, NCI-H2122
  EC50: 0.167 µM
Homo sapiens, NCI-H2170
  EC50: 1.54 µM
Homo sapiens, NCI-H2228
  EC50: > 8 µM
Homo sapiens, NCI-H2444
  EC50: > 8 µM
Homo sapiens, NCI-H2452
  EC50: > 8 µM
Homo sapiens, NCI-H3255
  EC50: > 8 µM
Homo sapiens, NCI-N87
  EC50: > 8 µM
Homo sapiens, NUGC-3
  EC50: 0.178 µM
Homo sapiens, NUGC-4
  EC50: 0.715 µM
Homo sapiens, OC-314
  EC50: > 8 µM
Homo sapiens, OCI-AML2
  EC50: 1.18 µM
Homo sapiens, OE33
  EC50: 2.02 µM
Homo sapiens, ONS-76
  EC50: 1.36 µM
Homo sapiens, OV-90
  EC50: > 8 µM
Homo sapiens, OVCAR-3
  EC50: > 8 µM
Homo sapiens, OVCAR-4
  EC50: > 8 µM
Homo sapiens, OVCAR-8
  EC50: > 8 µM
Homo sapiens, OVSAHO
  EC50: 0.613 µM
